In US9062041B2 (Bayer Intellectual Property GmbH, priority 2011, dated 2015):

Tests used:
Format in all cases: cell-based
[1] = target: EP2 subtype of the human PGE2 receptor (Homo sapiens, UniProt P43116); experiment: cAMP antagonism test on the human EP2 receptor (HTRF cAMP detection); conditions: hEP2 receptor, read-out: Antagonism hEP2 IC50
In short: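 Read-out is a competitive HTRF for cAMP: lysate cAMP displaces cAMP-d2 from Eu cryptate-labelled antibody, and antagonism raises the 665/620 nm ratio. Compound (0.8 nM–16.5 μM) added to EP2 cells 20 min at RT before 60 min PGE2 challenge (3× stock 1.5 nM) with IBMX, followed by 20 min lysis.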

human PGD receptor = target: T1, human PGD receptor (Homo sapiens, UniProt Q13258); experiment: cAMP antagonism test on the human prostaglandin D receptor (HTRF cAMP detection); conditions: selectivity towards hDP, IC50 measured by cAMP antagonism test
T1 sequence (Q13258 1-359): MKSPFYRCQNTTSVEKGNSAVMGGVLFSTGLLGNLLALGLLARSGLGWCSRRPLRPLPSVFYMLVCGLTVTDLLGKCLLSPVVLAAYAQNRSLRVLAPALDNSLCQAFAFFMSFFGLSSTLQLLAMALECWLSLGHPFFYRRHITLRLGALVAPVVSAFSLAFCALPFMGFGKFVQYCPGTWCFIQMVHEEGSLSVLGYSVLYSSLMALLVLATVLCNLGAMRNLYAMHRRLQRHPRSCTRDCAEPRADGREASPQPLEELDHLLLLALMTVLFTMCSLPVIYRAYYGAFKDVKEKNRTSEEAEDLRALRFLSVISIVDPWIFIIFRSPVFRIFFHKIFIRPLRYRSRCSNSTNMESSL
In short: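 HTRF competition read-out (665/620 nm ratio ×10000), where higher FRET means less cAMP, i.e. antagonism. Compounds (0.8 nM–16.5 μM) were preincubated 20 min at RT with cells and cAMP-d2, PGD2 (3× solution, 6 nM) in IBMX-containing PBS added for 30 min at RT, then cells lysed 20 min.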

[2] = target: EP4 subtype of the human PGE2 receptor (Homo sapiens, UniProt P35408); experiment: cAMP antagonism test on the human EP4 receptor (HTRF cAMP detection); conditions: selectivity towards hEP4, IC50 measured by cAMP antagonism test
Chain of EP4 subtype of the human PGE2 receptor (P35408 whole entry): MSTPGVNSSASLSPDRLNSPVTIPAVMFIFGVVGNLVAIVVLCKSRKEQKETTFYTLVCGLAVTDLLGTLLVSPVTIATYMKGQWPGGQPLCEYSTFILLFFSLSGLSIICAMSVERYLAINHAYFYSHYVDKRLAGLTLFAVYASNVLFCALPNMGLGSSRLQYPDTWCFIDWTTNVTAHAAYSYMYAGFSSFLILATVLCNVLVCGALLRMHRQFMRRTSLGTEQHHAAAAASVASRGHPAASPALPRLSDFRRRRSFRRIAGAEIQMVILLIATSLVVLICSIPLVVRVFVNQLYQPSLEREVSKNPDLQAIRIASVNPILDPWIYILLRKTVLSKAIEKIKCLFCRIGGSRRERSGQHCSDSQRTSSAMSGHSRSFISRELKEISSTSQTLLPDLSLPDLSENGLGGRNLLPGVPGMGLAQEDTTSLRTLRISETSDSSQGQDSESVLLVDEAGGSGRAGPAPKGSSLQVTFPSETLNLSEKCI
In short: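 Competitive HTRF cAMP read-out (cAMP-d2 vs Eu-cryptate anti-cAMP antibody, 665/620 nm ratio) on lysed human EP4 cells. Compound (0.8 nM–16.5 μM) applied 20 min at RT before 60 min PGE2 challenge (3× solution 0.3 nM, IBMX present); 20 min lysis precedes reading.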

Chain of EP2 subtype of the human PGE2 receptor (P43116 whole entry): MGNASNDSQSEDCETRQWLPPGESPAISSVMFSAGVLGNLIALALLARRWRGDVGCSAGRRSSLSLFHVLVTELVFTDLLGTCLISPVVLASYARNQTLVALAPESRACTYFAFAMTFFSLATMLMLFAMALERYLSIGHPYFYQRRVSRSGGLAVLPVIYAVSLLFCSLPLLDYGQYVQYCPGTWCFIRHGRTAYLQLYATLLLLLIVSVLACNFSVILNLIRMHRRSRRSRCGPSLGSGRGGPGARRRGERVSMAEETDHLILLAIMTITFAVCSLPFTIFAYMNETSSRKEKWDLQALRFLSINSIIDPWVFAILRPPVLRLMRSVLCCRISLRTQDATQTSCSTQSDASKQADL

SMILES | IC50 [1] [nM] | Selectivity hEP2/hDP (human PGD receptor) | Selectivity hEP2/hEP4 [2]
Cc1c(C(=O)NCC2CCCCO2)ccc2nn(CC3CCN(C(=O)c4ccc(Oc5ccc(C(F)(F)F)cc5)cc4)CC3)cc12 (single isomer, unassigned) [Example 417, (S or R)-4-methyl-N-(3,4,5,6-tetrahydro-2H-pyran-2-ylmethyl)-2-[(1-{4-[4-(trifluoromethyl)phenoxy]benzoyl}piperidin-4-yl)methyl]-2H-indazol-5-carboxamide] | 9.75 | xxx (xxx > 100) | xxx (xxx > 100)
COCCNC(=O)c1ccc2nn(CC3CCN(C(=O)c4ccc(-c5cncc(C(F)(F)F)c5)cc4)CC3)cc2c1C [Example 387, N-(2-methoxyethyl)-4-methyl-2-[(1-{4-[5-(trifluoromethyl)pyridin-3-yl]-benzoyl}piperidin-4-yl)methyl]-2H-indazol-5-carboxamide] | 13.2 | xxx (xxx > 100) | xxx (xxx > 100)
COCCNC(=O)c1ccc2nn(CC3CCN(C(=O)c4ccc(-n5cnnc5)cc4)CC3)cc2c1C [Example 52, N-(2-methoxyethyl)-4-methyl-2-((1-[4-(4H-1,2,4-triazol-4-yl)benzoyl]piperidin-4-yl}methyl)-2H-indazol-5-carboxamide] | 830 | xx (xx: 10-100) | xx (xx: 10-100)
Cc1c(C(=O)NCCOC2CCC2)ccc2nn(CC3CN(C(=O)c4ccc(OC(F)(F)F)cc4)C3)cc12 [Example 137, N-[2-(cyclobutyloxy)ethyl]-4-methyl-2-({1-[4-(trifluoromethoxy)benzoyl]azetidin-3-yl}methyl)-2H-indazol-5-carboxamide] | 7.65 | xxx (xxx > 100) | xxx (xxx > 100)
COCCNC(=O)c1ccc2nn(CC3CCN(C(=O)c4ccc(C#N)cc4)CC3)cc2c1C [Example 33, 2-{[1-(4-cyano-benzoyl)piperidin-4-yl]methyl}-N-(2-methoxyethyl)-4-methyl-2H-indazol-5-carboxamide] | 34.2 | xxx (xxx > 100) | xxx (xxx > 100)
COc1ccc(-c2ccc(C(=O)N3CCC(Cn4cc5c(C)c(C(=O)NCC(F)(F)F)ccc5n4)CC3)cc2)nc1 [Example 326, 2-({1-[4-(5-methoxypyridin-2-yl)benzoyl]piperidin-4-yl}methyl)-4-methyl-N-(2,2,2-trifluoroethyl)-2H-indazol-5-carboxamide] | 485 | xx (xx: 10-100) | xx (xx: 10-100)
Cc1c(C(=O)NCC(F)(F)F)ccc2nn(CC3CCN(C(=O)c4ccc(-c5ccc(C(F)(F)F)cn5)cc4)CC3)cc12 [Example 312, 4-methyl-N-(2,2,2-trifluoroethyl)-2-[(1-{4-[5-(trifluoromethyl)pyridin-2-yl]-benzoyl}piperidin-4-yl)methyl]-2H-indazol-5-carboxamide] | 158 | xxx (xxx > 100) | xxx (xxx > 100)
Cc1c(C(=O)NCCN2CCOCC2)ccc2nn(CC3CCN(C(=O)c4ccc(Oc5ccc(F)cc5)cc4)CC3)cc12 [Example 67, 2-({1-[4-(4-fluoro-phenoxy)benzoyl]-piperidin-4-yl}-methyl)-4-methyl-N-(2-morpholinoethyl)-2H-indazol-5-carboxamide] | 405 | xx (xx: 10-100) | xx (xx: 10-100)
COCCNC(=O)c1ccc2nn(CC3CCN(C(=O)c4cc5ccccc5n4C)CC3)cc2c1C [Example 29, N-(2-methoxyethyl)-4-methyl-2-({1-[(1-methyl-1H-indol-2-yl)carbonyl]-piperidin-4-yl}methyl)-2H-indazol-5-carboxamide] | 9.31 | xxx (xxx > 100) | xxx (xxx > 100)
COCCNC(=O)c1ccc2nn(CC3CCN(C(=O)c4ccc(N5CCOCC5)cc4)CC3)cc2c1C [Example 4, N-(2-methoxyethyl)-4-methyl-2-{[1-(4-morpholinobenzoyl)piperidin-4-yl]methyl}-2H-indazol-5-carboxamide] | 68.1 | xxx (xxx > 100) | xxx (xxx > 100)
COCCNC(=O)c1ccc2nn(CC3CCN(C(=O)c4ccc(Br)cc4F)CC3)cc2c1C [Example 8, 2-{[1-(4-bromo-2-fluorobenzoyl)piperidin-4-yl]methyl}-N-(2-methoxyethyl)-4-methyl-2H-indazol-5-carboxamide] | 9.37 | xxx (xxx > 100) | xxx (xxx > 100)
COCCNC(=O)c1ccc2nn(CC3CN(C(=O)c4ccc(Oc5ccc(C(F)(F)F)cn5)cc4)C3)cc2c1C [Example 174, N-(2-methoxyethyl)-4-methyl-2-{[1-(4-{[5-(trifluoromethyl)pyridin-2-yl]oxy}benzoyl)azetidin-3-yl]methyl}-2H-indazol-5-carboxamide] | 6.58 | xxx (xxx > 100) | xxx (xxx > 100)
COCCNC(=O)c1ccc2nn(CC3CCN(C(=O)c4ccc(Oc5ccccc5F)cc4)CC3)cc2c1C [Example 366, 2-({1-[4-(2-fluorophenoxy)benzoyl]piperidin-4-yl}methyl)-N-(2-methoxyethyl)-4-methyl-2H-indazol-5-carboxamide] | 18.9 | xxx (xxx > 100) | xxx (xxx > 100)
Cc1c(C(=O)NCC(F)(F)F)ccc2nn(CC3CCN(C(=O)c4ccc(-c5ccc(F)cn5)cc4)CC3)cc12 [Example 325, 2-({1-[4-(5-fluoropyridin-2-yl)benzoyl]piperidin-4-yl}methyl)-4-methyl-N-(2,2,2-trifluoroethyl)-2H-indazol-5-carboxamide] | 321 | xx (xx: 10-100) | xx (xx: 10-100)
Cc1ccc(C(=O)N2CC(Cn3cc4c(C)c(C(=O)NCCOCC5CC5)ccc4n3)C2)cc1 [Example 151, N-[2-(cyclopropylmethoxy)ethyl]-4-methyl-2-{[1-(4-methylbenzoyl)azetidin-3-yl]methyl}-2H-indazol-5-carboxamide] | 48.5 | xxx (xxx > 100) | xxx (xxx > 100)
Cc1c(C(=O)NCC2CCO2)ccc2nn(CC3CCN(C(=O)c4ccc(Cl)cc4)CC3)cc12 (racemic) [Example 412, (+/−)-2-{[1-(4-chlorobenzoyl)piperidin-4-yl]methyl}-4-methyl-N-(oxetan-2-ylmethyl)-2H-indazol-5-carboxamide] | 63.5 | xxx (xxx > 100) | xxx (xxx > 100)
COCCNC(=O)c1ccc2nn(C[C@@H]3CCN(C(=O)c4ccc(S(F)(F)(F)(F)F)cc4)C3)cc2c1C [Example 219, N-(2-methoxyethyl)-4-methyl-2-({(3R)-1-[4-(pentafluoro-λ^6-sulphanyl)benzoyl]-pyrrolidin-3-yl}methyl)-2H-indazol-5-carboxamide] | 273 | xx (xx: 10-100) | xx (xx: 10-100)
COCCNC(=O)c1ccc2nn(CC3CCN(C(=O)c4ccc(Oc5ncccn5)cc4)CC3)cc2c1C [Example 342, N-(2-methoxyethyl)-4-methyl-2-({1-[4-(pyrimidin-2-yloxy)benzoyl]piperidin-4-yl}methyl)-2H-indazol-5-carboxamide] | 103 | xxx (xxx > 100) | xxx (xxx > 100)
COCCNC(=O)c1ccc2nn(CC3CCN(C(=O)c4ccc(C(C)(C)C)cc4)CC3)cc2c1C [Example 333, 2-{[1-(4-tert-butylbenzoyl)piperidin-4-yl]methyl}-N-(2-methoxyethyl)-4-methyl-2H-indazol-5-carboxamide] | 6.42 | xxx (xxx > 100) | xxx (xxx > 100)
COCCNC(=O)c1ccc2nn(CC3CCN(C(=O)c4ccc(C(C)(C)C#N)cc4)CC3)cc2c1C [Example 341, 2-({1-[4-(1-cyano-1-methylethyl)benzoyl]piperidin-4-yl}methyl)-N-(2-methoxy-ethyl)-4-methyl-2H-indazol-5-carboxamide] | 55.3 | xxx (xxx > 100) | xxx (xxx > 100)
COCCNC(=O)c1ccc2nn(CC3CCN(C(=O)c4ccc(-c5ccc(F)cc5)c(C)c4)CC3)cc2c1C [Example 390, 2-({1-[(4′-fluoro-2-methylbiphenyl-4-yl)carbonyl]piperidin-4-yl}methyl)-N-(2-methoxyethyl)-4-methyl-2H-indazol-5-carboxamide] | 3.14 | xxx (xxx > 100) | xxx (xxx > 100)
